Data as given in patent US9149492B2, “Method for selectively inhibiting ACAT1 in the treatment of alzheimer's disease” (Trustees of Dartmouth College, priority 2008, dated 2015).
pIC50: −log10 of the molar value. Peptide text beside a SMILES is read from it.

Experiments:
AD mice = conditions: in vivo, cited from earlier work
WT microglia = assay: Oligomeric Aβ clearance from medium by microglia; assay type: cell-based, mouse; conditions: 1 μM pretreatment 24 hours, then 0.5 μM oAβ 18 hours
Protocol: WT or A1-microglia were treated with K604 at 1 μM in DMEM/F-12 (50:50) with 10% FBS for 24 hours. Control (Veh) or K604-treated microglia were subsequently incubated with 0.5 μM oAβ in serum-free DMEM/F-12 (50:50) containing 10 μg/ml BSA for 18 hours. At the end of incubation, the media were collected and the residual oAβ levels were detected by western blot analysis. Quantification was performed with image J software (mean±SEM, ***p<0.001).
Primary microglia from normal (WT) and Acat1-knockout (A1−) mouse brains were cultured in vitro. Oligomeric Aβ42 (0.5 μM) in serum-free DMEM/F-12 (50:50) medium containing 10 μg/ml BSA was added to the culture and the culture was incubated for 0, 3, 6, 12 or 18 hours. The remaining Aβ levels (1+2+3+4mers) in the media were analyzed by western blot analysis.
Clearance of oAβ in WT microglia and WT microglia pretreated with the ACAT1-selective inhibitor K604 was also determined.

[1] = system: transgenic mice expressing human APP(751) containing the London (V717I) and Swedish (K670M/N671L) mutations; conditions: cited from earlier work
human ACAT2 = human ACAT2 (Homo sapiens (Human), UniProt O75908); conditions: read-out: IC50 hACAT-2; cited from earlier work
mouse ACAT1 = mouse ACAT1 (Mus musculus (Mouse), UniProt Q61263); assay: ACAT1 western blot in NIH-3T3 fibroblasts transfected with microRNA; assay type: cell-based; conditions: 48 hours post-transfection, GFP-positive cells
Description: NIH-3T3 mouse fibroblasts were transiently transfected with one of several rAAV vectors encoding EmGFP and microRNA (miR) #52, #53, #54 or #55. Forty-eight hours post-transfection, GFP-positive cells were harvested by FACS. GFP-positive cells were washed then lysed in 10% SDS and syringe homogenized. Twenty microgram of protein per sample was subjected to SDS-PAGE. After western blot analysis, bands were quantified with ImageJ. ACAT1 intensity was normalized to GAPDH as a loading control and expressed as relative intensity.
Four different siRNA molecules (#52-#55; SEQ ID NOs:37-40; Table 3) targeting the mouse Acat1 gene were inserted into an endogenous mouse microRNA (miR) scaffold using Invitrogen's RNAi design tool. The artificial miRs were ligated into the mammalian expression vector pcDNA6.2-GW/EmGFP-miR. These. […] The miRs were delivered to the cells using a standard cDNA transfection protocol.

[2] = system: hippocampal neurons from A1+/Alz mice; assay: 24SOH treatment of hippocampal neurons, hAPP and HMGR content; assay type: cell-based, mouse
Protocol: Hippocampal neurons were isolated from A1+/Alz and A1−/Alz mice at postnatal day 5 according to standard protocols (Brewer (1997) J. Neurosci. Methods 71:143-155; Price & Brewer (2001) In Protocols for Neural Cell Culture. Fedoroff & Richardson, editors. Totowa, N.J.: Humana Press, Inc. 255-264). Cells were seeded in 6-well dishes in triplicates at 300,000 cells/well, and grown in 3 ml/well Neurobasal A medium with 1×B27, 0.5 mM L-Gln and 5 ng/ml FGF for 14 days. Half of the medium was replaced with […] fresh media once every 7 days. Forty-eight hours after the second media replacement, 50 μCi of [^3H] sodium acetate (100 mCi/mmol) in PBS was added per well for 3 hours. Lipids in cells and in media were extracted, saponified, and analyzed by using the same TLC system described herein. To minimize sterol oxidation, samples were protected from light and heat during lipid extraction, and were analyzed without storage. To improve separation, after sample loading, the TLC plate was placed under vacuum for 30 minutes prior to chromatography. ^3H-labeled sterol bands were identified based on iodine staining of unlabeled sterols added to samples prior to lipid extraction. Rf values: lanosterol, 0.5; cholesterol, 0.38; 24SOH, 0.2. The bands were scraped off and counted. For each labeled sterol, the counts present in cells and in media were added to calculate the synthesis rate for that sterol. Cholesterol esterification in intact cells was conducted according to established methods (Chang, et al. (1986) Biochemistry 25:1693-1699); the ^3H-oleate pulse time was 3 hours.
To test this, hippocampal neurons from A1+/Alz mice were treated with 24SOH, and the hAPP protein content and the HMGR protein content were monitored in parallel.

WT or A1-microglia = assay: Pulse-chase of intracellular oAβ42 degradation in microglia with lysosomal inhibitors; assay type: cell-based, mouse; conditions: pre-incubation with inhibitor, 0.5 μM oAβ 30 minutes, 6 hours chase
Protocol: WT or A1-microglia were pretreated with DMSO only; with bafilomycin A1 (BafA1), a lysosomal v-ATPase inhibitor (250 nM); with Ac-LVK-CHO, a cell permeable cathepsin B inhibitor (CapB I) at 1 μM; or with pepstatin A methyl ester, a cell permeable aspartyl peptidase inhibitor at 25 μM, for 60 minutes. Cells with or without the inhibitors were further incubated with 0.5 μM oAβ for 30 minutes. Cells were washed with pre-warmed PBS (twice) and pre-warmed medium (once) and then further incubated in fresh serum-free DMEM/F-12 (50:50) for 6 hours. At the end of incubation, cells were washed with PBS twice and lysed with 1% SDS containing a protease inhibitor cocktail. Intracellular oAβ levels were examined by ELISA. The values were normalized by cellular protein contents. The data are averages of 3-4 independent experiments. (mean±SEM, n.s. not significant, *p<0.05, p<0.01, ***p<0.001).
Pulse-chase of oAβ42 was also carried out (FIG. 4A) and the fate of oAβ42 was monitored via an ELISA assay.

Sequence of human ACAT2 (O75908 whole entry): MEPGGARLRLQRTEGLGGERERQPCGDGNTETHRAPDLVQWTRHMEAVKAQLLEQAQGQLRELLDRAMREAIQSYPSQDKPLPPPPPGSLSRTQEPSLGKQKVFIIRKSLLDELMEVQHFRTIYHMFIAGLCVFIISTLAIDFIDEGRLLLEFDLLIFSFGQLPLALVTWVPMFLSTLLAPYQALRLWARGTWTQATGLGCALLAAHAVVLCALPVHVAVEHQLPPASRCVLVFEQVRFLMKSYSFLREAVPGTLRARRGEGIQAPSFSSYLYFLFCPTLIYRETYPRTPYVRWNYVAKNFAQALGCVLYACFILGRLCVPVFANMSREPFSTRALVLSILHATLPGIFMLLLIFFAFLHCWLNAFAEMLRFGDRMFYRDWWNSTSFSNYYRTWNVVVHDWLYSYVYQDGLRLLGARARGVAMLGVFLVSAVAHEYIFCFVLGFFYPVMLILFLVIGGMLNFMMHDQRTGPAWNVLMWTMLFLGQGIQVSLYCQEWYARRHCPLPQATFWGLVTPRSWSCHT

Compound: CC(C)c1cc(C(C)C)c(CC(=O)NS(=O)(=O)Oc2c(C(C)C)cccc2C(C)C)c(C(C)C)c1 [CI 1011]
- amyloid plaques (AD mice; mouse): significantly reduced
- cognitive deficits (AD mice; mouse): rescued
- mature/immature ratio of hAPP (AD mice; mouse): decreases

Compound: CSc1cc(C)nc(SC)c1NC(=O)CN1CCN(CCSc2nc3ccccc3[nH]2)CC1 [K-604]
- enhancement of ability to clear oAβ42 from the medium (WT microglia): up to 65%
- oAβ degradation in microglia (WT microglia): promotes oAβ degradation

Compound: CCCCCCCC[C@H](SCCCCCC)C(=O)Nc1c(SC)cc(C)nc1SC [CP-113,818]
- processing of both human APP and mouse APP (AD mice): inhibits
- amyloid plaques (AD mice; mouse): significantly reduced
- cognitive deficits (AD mice; mouse): rescued
- spatial learning ([1]; mouse, in vivo): slightly improved
- ectodomain shedding of endogenous APP in the brain ([1]; nontransgenic littermates): reduced
- reduction of accumulation of amyloid plaques ([1]; two months of treatment): 88%-99%
- reduction of membrane/insoluble Amyloid β levels ([1]; two months of treatment): 83%-96%

Compound: saucerneol B
- pIC50 (human ACAT2): 3.91

Compound: miR Negative Control: negative control miR 5′-TACTGCGCGTGGAGACG-3′ (SEQ ID NO:46), matches no known vertebrate gene (chemistry not given here)
- Relative Intensity (ACAT1 normalized to GAPDH) (mouse ACAT1): 1.02

Compound: CC(C)[C@@H](O)CC[C@@H](C)[C@H]1CC[C@H]2[C@@H]3CC=C4C[C@@H](O)CC[C@]4(C)[C@H]3CC[C@]12C [24SOH, 24S-hydroxycholesterol]
- HMGR protein content ([2]; 1 μM, within 3 hours): rapidly decreased
- hAPP protein content ([2]; 1 μM, within 3 hours): rapidly decreased
- hAPP mRNA level ([2]; 1-5 μM): without affecting
- hAPP protein content ([2]; 1-5 μM): rapid decline

Compound: CC(=O)N[C@@H](CC(C)C)C(=O)N[C@H](C(=O)N[C@H](C=O)CCCCN)C(C)C [Ac-LVK-CHO] (Ac-Leu-Val-Lys-aldehyde)
- difference in oAβ42 degradation between WT and A1-microglia (WT or A1-microglia): abolished
